Test system: WM3248 melanoma cells, 486 antibodies
Test: Reverse phase protein arrays (RPPA);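 for RPPA ACC1.R.C: ratio of treated to vehicle (0 µM) normalized linear protein signal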;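 for RPPA AMPK.a2 pS345.R.V: ratio of treated to vehicle (0 µM) normalized linear protein signal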;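 for RPPA AMPKa pT172.R.C: ratio of treated to vehicle (0 µM) normalized linear protein signal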;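 for RPPA ASNS.R.V: ratio of treated to vehicle (0 µM) normalized linear protein signal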;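 for RPPA AceCS1.R.V: ratio of treated to vehicle (0 µM) normalized linear protein signal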;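 for RPPA Akt1.R.V: ratio of treated to vehicle (0 µM) normalized linear protein signal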;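 for RPPA Atg5.R.C: ratio of treated to vehicle (0 µM) normalized linear protein signal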;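 for RPPA Bim.R.V: ratio of treated to vehicle (0 µM) normalized linear protein signal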
Assay type: cell-based, Human
Settings: 20 uM
Description: Pellets were snap frozen in liquid nitrogen and shipped to MD Anderson Cancer Center core RPPA facility for RPPA analysis (Table S5). Three biological replicates for each sample were generated.
Nomenclatures on the RPPA heatmaps: name_of_antibody.species_of_antibody.status_of_antibody. V - antibody validated; C - validation of antibody in progress; Q - antibody nonspecific; E – under evaluation; antibodies raised in M - mouse, G - goat, R - rabbit, or T - rat.

CN(C)c1cccc(Nc2cc(-c3ccccc3)nc(C3CCNCC3)n2)c1 [ARN22089, N1,N1-dimethyl-N3-(6-phenyl-2-(piperidin-4-yl)pyrimidin-4-yl)benzene-1,3-diamine]
RPPA p38.a.M.V Average: 0.905
RPPA p44.42.MAPK.R.V Average: 1.030
RPPA p53.R.C Average: 1.157
RPPA p70.S6K1.R.V Average: 1.027
RPPA p70.S6K_pT389.R.V Average: 0.996
RPPA p90RSK_pT573.R.C Average: 1.014
RPPA A.Raf.R.V (20W1): 1.011
RPPA ACC1.R.C (20W1): 0.890
RPPA ACLY_pS455.R.V (20W1): 1.224
RPPA ACSL1.R.V (20W1): 0.955
RPPA ACVRL1.R.C (20W1): 0.972
RPPA ADAR1.M.V (20W1): 1.307
RPPA ALKBH5.R.V (20W1): 0.885
RPPA AMPK.a2_pS345.R.V (20W1): 1.081
RPPA AMPKa.R.C (20W1): 1.032
RPPA AMPKa_pT172.R.C (20W1): 3.755
RPPA AR.R.V (20W1): 0.874
RPPA ARID1A.R.C (20W1): 1.514
RPPA ASNS.R.V (20W1): 0.742
RPPA ATM.R.V (20W1): 1.024
RPPA ATM_pS1981.R.V (20W1): 1.111
RPPA ATP5A.M.C (20W1): 1.018
RPPA ATP5H.R.V (20W1): 1.117
RPPA ATR.R.V (20W1): 1.005
RPPA ATRX.R.C (20W1): 1.357
RPPA ATR_pS428.R.C (20W1): 1.054
RPPA AceCS1.R.V (20W1): 0.907
RPPA Akt1.R.V (20W1): 0.811
RPPA Akt1_pS473.R.V (20W1): 1.162
RPPA Akt2.R.V (20W1): 0.873
RPPA Akt.R.V (20W1): 0.913
RPPA Akt_pS473.R.V (20W1): 0.795
RPPA Akt_pT308.R.V (20W1): 0.845
RPPA Ambra1_pS52.R.C (20W1): 1.101
RPPA Annexin.I.M.V (20W1): 0.972
RPPA Atg3.R.V (20W1): 0.914
RPPA Atg4B.R.C (20W1): 0.881
RPPA Atg5.R.C (20W1): 0.779
RPPA Atg7.R.V (20W1): 0.813
RPPA Aurora.A.R.C (20W1): 0.656
RPPA Aurora.ABC_pT288_pT232_pT198.R.C (20W1): 0.959
RPPA Aurora.B.R.V (20W1): 1.341
RPPA Axl.R.V (20W1): 0.908
RPPA B7.H3.R.C (20W1): 0.771
RPPA B7.H4.R.C (20W1): 1.034
RPPA B.Raf.R.C (20W1): 0.907
RPPA B.Raf_pS445.R.V (20W1): 0.934
RPPA BAP1.M.V (20W1): 0.877
RPPA BCL2A1.R.V (20W1): 0.987
RPPA BMK1.Erk5_pT218_Y220.R.V (20W1): 0.909
RPPA BRCA1.M.C (20W1): 1.231
RPPA BRD4.R.V (20W1): 1.228
RPPA Bad_pS112.R.V (20W1): 1.119
RPPA Bak.R.C (20W1): 1.000
RPPA Bax.R.V (20W1): 0.927
RPPA Bcl2.R.C (20W1): 1.064
RPPA Bcl.xL.R.V (20W1): 1.008
RPPA Beclin.R.C (20W1): 0.873
RPPA BiP.GRP78.M.C (20W1): 0.914
RPPA Bid.R.C (20W1): 0.954
RPPA Bim.R.V (20W1): 1.054
RPPA X4E.BP1.R.V (20W1): 1.323
RPPA X4E.BP1_pS65.R.V (20W1): 0.718
RPPA X4E.BP1_pT37_T46.R.V (20W1): 0.651
RPPA X14.3.3.zeta.R.V (20W1): 0.801
RPPA X14.3.3βR.V (20W1): 1.140
RPPA X14.3.3εM.C (20W1): 0.864
RPPA b.Actin.R.C (20W1): 1.078
RPPA b.Catenin.R.V (20W1): 0.844
RPPA b.Catenin_pT41_S45.R.V (20W1): 1.120
RPPA c.Abl.R.V (20W1): 1.161
RPPA c.IAP2.R.C (20W1): 1.080
RPPA A.Raf.R.V (20W3): 0.992
RPPA A.Raf_pS299.R.C (20W3): 0.987
RPPA ACC1.R.C (20W3): 0.779
RPPA ACC_pS79.R.V (20W3): 0.983
RPPA ACLY_pS455.R.V (20W3): 0.970
RPPA ACSL1.R.V (20W3): 0.853
RPPA ACVRL1.R.C (20W3): 0.984
RPPA ALKBH5.R.V (20W3): 0.991
RPPA AMPK.a2_pS345.R.V (20W3): 1.134
RPPA AMPKa.R.C (20W3): 1.122
RPPA AMPKa_pT172.R.C (20W3): 2.117
RPPA AR.R.V (20W3): 1.261
RPPA ARID1A.R.C (20W3): 1.115
RPPA ASNS.R.V (20W3): 1.296
RPPA ATM.R.V (20W3): 0.991
RPPA ATM_pS1981.R.V (20W3): 0.989
RPPA ATP5A.M.C (20W3): 0.955
RPPA ATP5H.R.V (20W3): 0.967
RPPA ATR.R.V (20W3): 0.989
RPPA ATR_pS428.R.C (20W3): 1.254
RPPA AceCS1.R.V (20W3): 0.994
RPPA Akt1.R.V (20W3): 1.129
RPPA Akt1_pS473.R.V (20W3): 1.135
RPPA Akt2.R.V (20W3): 1.035
RPPA Akt2_pS474.R.C (20W3): 1.166
RPPA Akt.R.V (20W3): 0.976
RPPA Akt_pS473.R.V (20W3): 1.265
RPPA Ambra1_pS52.R.C (20W3): 0.996
RPPA Annexin.I.M.V (20W3): 0.990
RPPA Annexin.VII.M.V (20W3): 0.885
RPPA Atg3.R.V (20W3): 1.076
RPPA Atg4B.R.C (20W3): 1.076
RPPA Atg5.R.C (20W3): 0.960
RPPA Aurora.A.R.C (20W3): 0.983
RPPA Aurora.ABC_pT288_pT232_pT198.R.C (20W3): 1.060
RPPA Axl.R.V (20W3): 1.478
RPPA B7.H3.R.C (20W3): 1.058
RPPA B7.H4.R.C (20W3): 1.107
RPPA B.Raf_pS445.R.V (20W3): 1.167
RPPA BAP1.M.V (20W3): 0.964
RPPA BMK1.Erk5_pT218_Y220.R.V (20W3): 0.926
RPPA BRCA1.M.C (20W3): 0.977
RPPA BRD4.R.V (20W3): 1.002
RPPA Bad_pS112.R.V (20W3): 1.163
RPPA Bax.R.V (20W3): 1.054
RPPA Bcl2.R.C (20W3): 0.975
RPPA Bcl.xL.R.V (20W3): 1.190
RPPA Beclin.R.C (20W3): 0.948
RPPA BiP.GRP78.M.C (20W3): 1.003
RPPA Bid.R.C (20W3): 0.943
RPPA Bim.R.V (20W3): 0.917
RPPA X4E.BP1.R.V (20W3): 1.550
RPPA X4E.BP1_pS65.R.V (20W3): 1.024
RPPA X4E.BP1_pT37_T46.R.V (20W3): 1.034
RPPA X14.3.3βR.V (20W3): 0.902
RPPA X14.3.3εM.C (20W3): 0.973
RPPA b.Actin.R.C (20W3): 0.977
RPPA b.Catenin.R.V (20W3): 1.021
RPPA b.Catenin_pT41_S45.R.V (20W3): 1.082
RPPA c.Abl.R.V (20W3): 1.234
RPPA c.Abl_pY412.R.C (20W3): 1.114
C.Raf.R.C RPPA level (Average): 1.061
CA9.R.C RPPA level (Average): 0.925
CD2.M.C RPPA level (Average): 0.936
CD4.R.V RPPA level (Average): 1.006
CD5.M.C RPPA level (Average): 0.966
CD20.R.C RPPA level (Average): 1.099
CD31.M.V RPPA level (Average): 0.988
CD38.R.C RPPA level (Average): 1.131
CD44.R.C RPPA level (Average): 0.982
CD45.M.V RPPA level (Average): 0.957
CD49b.M.V RPPA level (Average): 0.989
CD68.M.C RPPA level (Average): 0.999
CD74.M.V RPPA level (Average): 0.998
CD134.R.V RPPA level (Average): 0.994
CD171.M.V RPPA level (Average): 0.762
CDK1_pT14.R.C RPPA level (Average): 1.056
CDK9.R.V RPPA level (Average): 0.964
CDKN2A.R.C RPPA level (Average): 1.024
CDT1.R.V RPPA level (Average): 0.971
CENP.A.R.V RPPA level (Average): 1.548
CHD1L.R.V RPPA level (Average): 0.954
CIITA.R.C RPPA level (Average): 1.002
COG3.R.V RPPA level (Average): 1.098
CRABP1.R.C RPPA level (Average): 1.025
CRABP2.R.V RPPA level (Average): 0.977
CREB_pS133.R.C RPPA level (Average): 1.270
CSK.R.C RPPA level (Average): 0.987
Calnexin.R.V RPPA level (Average): 0.956
Caspase.7.cleaved..R.C RPPA level (Average): 0.982
Caspase.8.M.Q RPPA level (Average): 0.929

Source: PMC9127750, “Structure-based design of CDC42 effector interaction inhibitors for the treatment of cancer” (Cell reports, 2022)
